# Experimental data from US11034725B2, “Compositions and methods for treating cardiovascular disease” (Genentech, Inc., priority 2016, dated 2021).
# Read-outs that look alike come from different tables or passages of the source. Bridge positions count the residues as written; N and C are the ends. Square brackets hold non-standard residues; d marks the D form. Peptide text beside a SMILES is read from it. * marks the point of attachment. Trp(6-Cl) = N[C@@H](Cc1c[nH]c2cc(Cl)ccc12)C(=O)O; Trp(6-F) = N[C@@H](Cc1c[nH]c2cc(F)ccc12)C(=O)O; hArg = N=C(N)NCCCC[C@H](N)C(=O)O; Pentanoyl = CCCCC(=O)*
# Key:
# PCSK9 = PCSK9 (Homo sapiens, UniProt Q8NBP7); assay: PCSK9/EGF(A) TR-FRET binding assay; conditions: TR-FRET, read-out: PCSK9/EGF(A) IC50
# Sequence of PCSK9 (Q8NBP7 153-692): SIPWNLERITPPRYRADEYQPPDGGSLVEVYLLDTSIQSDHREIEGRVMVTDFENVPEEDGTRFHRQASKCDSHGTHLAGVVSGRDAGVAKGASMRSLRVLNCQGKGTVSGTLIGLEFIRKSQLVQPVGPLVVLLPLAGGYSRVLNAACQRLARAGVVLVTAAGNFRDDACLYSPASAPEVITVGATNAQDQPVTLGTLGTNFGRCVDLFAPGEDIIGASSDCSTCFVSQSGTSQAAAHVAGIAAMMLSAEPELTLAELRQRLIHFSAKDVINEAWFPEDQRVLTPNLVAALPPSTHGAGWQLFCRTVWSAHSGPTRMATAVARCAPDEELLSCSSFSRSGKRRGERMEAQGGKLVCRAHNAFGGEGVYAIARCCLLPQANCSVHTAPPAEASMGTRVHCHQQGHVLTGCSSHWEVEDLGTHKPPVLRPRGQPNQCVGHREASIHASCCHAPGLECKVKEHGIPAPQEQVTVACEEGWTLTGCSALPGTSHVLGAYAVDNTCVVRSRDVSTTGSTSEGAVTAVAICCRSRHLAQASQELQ
# Sequence of PCSK9 (Q8NBP7 31-152 partner limits assumed): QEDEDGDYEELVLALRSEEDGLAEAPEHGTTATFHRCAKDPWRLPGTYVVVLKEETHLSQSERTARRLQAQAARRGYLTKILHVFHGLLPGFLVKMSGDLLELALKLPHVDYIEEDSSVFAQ
# PCSK9Δhelix = molecular target: T1, PCSK9Δhelix (Homo sapiens, UniProt Q8NBP7); assay: PCSK9Δhelix/Ab20 TR-FRET binding assay; conditions: TR-FRET, read-out: PCSK9Δhelix/Ab20 IC50
# T1 construct: Human PCSK9 construct M1-Q692 with an engineered TEV site (residue deletion Y166, R167); made in house; host or cells: CHO
# T1 sequence (Q8NBP7 with tags, fused parts or gaps limits assumed): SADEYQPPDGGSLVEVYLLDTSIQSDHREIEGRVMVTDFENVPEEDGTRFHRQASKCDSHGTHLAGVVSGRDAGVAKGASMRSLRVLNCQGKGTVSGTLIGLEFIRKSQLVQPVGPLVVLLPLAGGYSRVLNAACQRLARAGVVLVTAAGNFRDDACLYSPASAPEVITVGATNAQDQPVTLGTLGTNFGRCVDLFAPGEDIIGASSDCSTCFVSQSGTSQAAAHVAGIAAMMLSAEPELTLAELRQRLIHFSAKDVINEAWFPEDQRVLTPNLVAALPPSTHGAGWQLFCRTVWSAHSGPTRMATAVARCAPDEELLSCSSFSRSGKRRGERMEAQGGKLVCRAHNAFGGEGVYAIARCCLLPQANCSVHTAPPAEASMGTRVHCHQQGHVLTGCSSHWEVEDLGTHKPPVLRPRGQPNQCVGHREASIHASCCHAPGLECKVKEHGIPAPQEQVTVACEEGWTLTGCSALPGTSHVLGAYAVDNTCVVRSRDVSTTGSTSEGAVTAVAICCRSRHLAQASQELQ
# T1 sequence (Q8NBP7 31-152 partner limits assumed): as the sequence (Q8NBP7 31-152 partner limits assumed) above
# Description: The former was based on a TF-FRET assay to measure the association of the EGF(A) domain of the LDLR to PCSK9 (“PCSK9/EGF(A) binding assay”) whilst the latter was based on a TR-FRET assay to measure binding of Ab20 to PCSK9Δhelix (“PCSK9Δhelix/Ab20 binding assay”).
# The ability of compounds to inhibit binding to PCSK9 was evaluated with a panel of time-resolved fluorescence resonance energy transfer (TR-FRET) binding assays. […] The PCSK9Δhelix/Ab20 binding assay evaluated the ability of compounds to compete with Ab20 for binding to the N-terminal groove region in a His-tagged, PCSK9Δhelix construct. […] Signal generation in the PCSK9 binding assays was dependent upon the binding interaction to bring into close proximity the His-tag on the PCSK9 and the Fc-tag on the ligand. Anti-His-APC was bound to the His-tag, and anti-Fc-europium was bound to the Fc-tag. When these two antibodies were in close proximity and were irradiated with light at 340 nm, the europium was excited and emitted energy at 615 nm. This energy was taken up by the APC and was emitted as light at 665 nm. Compounds that competed with the ligand reduced the energy transfer and thus the emission at 665 nm. In the His-EGFA-Fc molecule in the counterscreen, the two tags were always in close proximity, thus any reduction in emission at 665 nm was due to interference with the detection system.
# Compounds were solubilized and dilutions were prepared in DMSO. […] The plate was centrifuged to mix the well contents and allowed to incubate for 30 min. […] The TR-FRET signal was read on a ViewLux reader (PerkinElmer) with excitation at 340 nm and emission at 615 and 665 nm with a 50-μs time delay between excitation and measurement of emission. The TR-FRET ratio was calculated as the fluorescence emission at 665 nm divided by the fluorescence emission at 615 nm. The normalized TR-FRET ratios were plotted as a function of the compound concentrations, and the IC50 values were determined using a 4-parameter logistic regression.
# In black 1536-well assay plates (MaKO, Aurora® Microplates, Whitefish, Mont.), 40 nL of peptide in DMSO were preincubated with 2 μL His-tagged PCSK9 plus anti-His-allophycocyanin in assay buffer (50 mM Tris-HCl, pH 7.5, 150 mM NaCl, 2 mM CaCl2, 0.01% Tween®-20, 0.1% bovine gamma globulins, and protease inhibitor cocktail) for 30 min. Then 2 μL of Fc-tagged ligand and anti-Fc-europium in assay buffer were added and allowed to incubate for 2 h.
# His-EGF(A)-Fc = His-EGF(A)-Fc TR-FRET counterscreen
# [1] = TR-FRET counterscreen, Table 8E, additional compounds
Compound,"IC50 (PCSK9; Table 8E, additional compounds) [µM]","IC50 (PCSK9Δhelix; Table 8E, additional compounds) [µM]",IC50 (His-EGF(A)-Fc; [1]) [µM],IC50 (PCSK9; Example 7) [µM],IC50 (PCSK9Δhelix; Example 7) [µM],"IC50 (His-EGF(A)-Fc; counterscreen, Example 7) [µM]"
CCCCC(=O)N[C@@H](Cc1c[nH]c2ccccc12)C(=O)N[C@@H](CC(N)=O)C(=O)N[C@@H](CC(C)C)C(=O)N[C@H](C(=O)N[C@@H](CCCNC(=N)N)C(=O)N[C@H](C(=O)NCC(=O)N[C@@H](CC(C)C)C(=O)N[C@@H](CC(=O)O)C(=O)N[C@@H](CCCNC(=N)N)C(N)=O)[C@@H](C)CC)C(C)C [Compound 178] (Pentanoyl-WNLVRIGLDR-NH2),≥ 50,18,≥ 50,–,–,–
CCCCC(=O)N[C@@H](Cc1c[nH]c2ccccc12)C(=O)N[C@@H](CC(N)=O)C(=O)N[C@@H](CC(C)C)C(=O)N[C@H](C(=O)N[C@@H](CCCNC(=N)N)C(=O)N[C@H](C(=O)NCC(=O)N[C@@H](CC(C)C)C(=O)NCC(=O)N[C@@H](CCCNC(=N)N)C(N)=O)[C@@H](C)CC)C(C)C [Compound 179] (Pentanoyl-WNLVRIGLGR-NH2),≥ 50,11,≥ 50,–,–,–
CCCCC(=O)N[C@@H](Cc1c[nH]c2ccccc12)C(=O)N[C@@H](CC(N)=O)C(=O)N[C@@H](CC(C)C)C(=O)N[C@H](C(=O)N[C@@H](CCCNC(=N)N)C(=O)N[C@H](C(=O)NCC(=O)N[C@@H](CC(C)C)C(=O)N[C@@H](C)C(=O)N[C@@H](CCCNC(=N)N)C(N)=O)[C@@H](C)CC)C(C)C [Compound 180] (Pentanoyl-WNLVRIGLAR-NH2),≥ 50,12,≥ 50,–,–,–
CCCCC(=O)N[C@@H](Cc1c[nH]c2cc(Cl)ccc12)C(=O)N[C@@H](CC(N)=O)C(=O)N[C@@H](CC(C)C)C(=O)N[C@H](C(=O)N[C@@H](CCCNC(=N)N)C(=O)N[C@H](C(=O)NCC(=O)N[C@@H](CC(C)C)C(=O)N[C@H](C(=O)N[C@@H](CCCNC(=N)N)C(N)=O)[C@@H](C)O)[C@@H](C)CC)C(C)C [Compound 186] (Pentanoyl-[Trp(6-Cl)]NLVRIGLTR-NH2),31,11,46,–,–,–
"CCCCC(=O)N[C@@H](Cc1c[nH]c2ccccc12)C(=O)N[C@@H](CC(N)=O)C(=O)N[C@@H](CC(C)C)C(=O)N[C@H](C(=O)N[C@@H](CCCCNC(=N)N)C(=O)N[C@H](C(=O)NCC(=O)N[C@@H](CC(C)C)C(=O)N[C@@H](CC(C)C)C(=O)N[C@@H](CCCNC(=N)N)C(=O)O)[C@@H](C)CC)C(C)C [Compound 195, n-BuC(O)-WNLV(homoR)IGLLR] (Pentanoyl-WNLV[hArg]IGLLR-OH)",22,1.7,45,–,–,–
CC[C@H](C)[C@H](NC(=O)[C@H](CCCCNC(=N)N)NC(=O)[C@H](CCCCN)NC(=O)[C@H](CC(C)C)NC(=O)[C@H](CC(N)=O)NC(=O)[C@H](Cc1c[nH]c2ccccc12)NC(=O)CNC(=O)[C@@H]1CCCN1C(=O)[C@H](Cc1ccccc1)NC(=O)[C@H](C)NC(=O)[C@H](Cc1ccccc1)NC(=O)[C@H](CO)NC(C)=O)C(=O)NCC(=O)N[C@@H](CC(C)C)C(=O)N[C@@H](CC(C)C)C(=O)N[C@@H](CCCNC(=N)N)C(N)=O [Compound 232] (Ac-SFAFPGWNLK[hArg]IGLLR-NH2),0.93,13,≥ 50,–,–,–
"CCCCC(=O)N[C@@H](Cc1c[nH]c2ccccc12)C(=O)N[C@@H](CC(N)=O)C(=O)N[C@@H](CC(C)C)C(=O)N[C@H](C(=O)N[C@@H](CCCCNC(=N)N)C(=O)N[C@H](C(=O)NCC(=O)N[C@@H](CC(C)C)C(=O)N[C@H](C(=O)N[C@@H](CCCNC(=N)N)C(N)=O)[C@@H](C)O)[C@@H](C)CC)C(C)C [Compound 234, n-BuC(O)-WNLV(homoR)IGLTR-NH2] (Pentanoyl-WNLV[hArg]IGLTR-NH2)",≥ 50,1.4,≥ 50,–,–,–
"CCCCC(=O)N[C@@H](Cc1c[nH]c2ccccc12)C(=O)N[C@@H](CC(N)=O)C(=O)N[C@@H](CC(C)C)C(=O)N[C@H](C(=O)N[C@@H](CCCCNC(=N)N)C(=O)N[C@H](C(=O)NCC(=O)N[C@@H](CC(C)C)C(=O)N[C@H](C(=O)N[C@@H](CCCNC(=N)N)C(=O)O)[C@@H](C)O)[C@@H](C)CC)C(C)C [Compound 235, n-BuC(O)-WNLV(homoR)IGLTR] (Pentanoyl-WNLV[hArg]IGLTR-OH)",≥ 50,2.7,≥ 50,–,–,–
"CC[C@H](C)[C@H](NC(=O)[C@H](CCCCNC(=N)N)NC(=O)[C@@H](NC(=O)[C@H](CC(C)C)NC(=O)[C@H](CC(N)=O)NC(=O)[C@@H](N)Cc1c[nH]c2ccccc12)C(C)C)C(=O)NCC(N)=O [Compound 236, WNLV(homoR)IG-NH2] (H-WNLV[hArg]IG-NH2)",≥ 50,22,≥ 50,–,–,–
"CC[C@H](C)[C@H](NC(=O)[C@H](CCCCNC(=N)N)NC(=O)[C@@H](NC(=O)[C@H](CC(C)C)NC(=O)[C@H](CC(N)=O)NC(=O)[C@@H](N)Cc1c[nH]c2ccccc12)C(C)C)C(=O)NCC(=O)N[C@@H](CC(C)C)C(=O)N[C@@H](CC(C)C)C(=O)N[C@@H](CCC(N)=O)C(N)=O [Compound 237, WNLV(homoR)IGLLQ-NH2] (H-WNLV[hArg]IGLLQ-NH2)",8.8,0.33,46,–,–,–
CC[C@H](C)[C@@H]1NC(=O)[C@H](CCCNC(=N)N)NC(=O)[C@H](CCC(N)=O)NC(=O)[C@H](CC(C)C)NC(=O)[C@H](CC(N)=O)NC(=O)[C@H](Cc2c[nH]c3ccccc23)NC(=O)[C@@H]2CCCN2C(=O)[C@H](CC(C)C)NC(=O)[C@H](CCCNC(=N)N)NC(=O)[C@@H](NC(=O)CNC(=O)[C@H](CO)NC(=O)CNC(=O)[C@@H](NC(=O)[C@H](Cc2c[nH]c3ccccc23)NC(=O)[C@H](CC(=O)O)NC(=O)[C@H](CC(C)C)NC(=O)[C@H](Cc2ccc(O)cc2)NC(=O)[C@H](CCC(=O)O)NC(=O)[C@H](CCC(=O)O)NC(=O)[C@H](Cc2c[nH]c3cc(F)ccc23)NC(=O)[C@H](CO)NC(=O)[C@@H](NC(=O)[C@H](Cc2ccccc2)NC(=O)[C@@H](NC(=O)[C@@H](NC(C)=O)[C@@H](C)O)C(C)C)[C@@H](C)O)C(C)C)CSSC[C@@H](C(N)=O)NC(=O)[C@@H]2CCCN2C(=O)[C@H](CC(C)C)NC(=O)CNC1=O [Compound 241] (Ac-TVFTS[Trp(6-F)]EEYLDWVGSGCRLPWNLQRIGLPC-NH2; disulfide 17-30 (inferred)),1.6,0.1,≥ 50,–,–,–
Ac-DAMPWNLVRIGLLR-NH2 [Compound 44],–,–,–,> 50,6.9,> 50
Ac-DLAPWNLVRIGLLR-NH2 [Compound 43],–,–,–,> 50,8.19,> 50
Ac-DLMAWNLVRIGLLR-NH2 [Compound 42],–,–,–,> 50,28.5,> 50
Ac-DLMPANLVRIGLLR-NH2 [Compound 41],–,–,–,> 50,> 49.5,> 50
Ac-DLMPWALVRIGLLR-NH2 [Compound 62],–,–,–,> 50,> 49.5,> 50
Ac-DLMPWNAVRIGLLR-NH2 [Compound 61],–,–,–,> 50,> 49.5,> 50
Ac-DLMPWNLARIGLLR-NH2 [Compound 60],–,–,–,> 50,19.2,> 50
Ac-DLMPWNLKRIGLLR-NH2 [Compound 158],≥ 50,12,≥ 50,–,–,–
Ac-DLMPWNLVAIGLLR-NH2 [Compound 59],–,–,–,> 50,> 49.5,> 50
Ac-DLMPWNLVRAGLLR-NH2 [Compound 58],–,–,–,> 50,> 49.5,> 50
Ac-DLMPWNLVRI-NH2 [Compound 49],–,–,–,> 50,≥ 49.5,> 50
